One experiment has as its target human KHK-C (Homo sapiens (Human), UniProt P50053). As to the kind of experiment: KHK Biochemical Assay (IC50), ADP-Glo, KHK-C. The conditions noted are these: average of at least two separate assays. Summed up:
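Luminescent ADP-Glo read-out of ADP made by His-tagged KHK (BL21 (DE3) expression, Ni-NTA). Enzyme and compound sat together 30 min before ATP/fructose addition, then reacted 4 h at RT in Hepes pH 7.4 buffer with KCl, MgCl2, Triton-X. Quench 1 h, detection 1 h.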

The target in experiment [1] is KHK-C expressed in NRK-52E cells (Homo sapiens (Human), UniProt P50053). Put plainly: KHK-C Cell-based Assay (EC50), NRK CTG, fructose-mediated ATP-depletion.

The structures appear in SMILES notation. Bounds are passed on as bounds.

The term IC50 denotes the concentration at which inhibition is half-maximal. A word on the EC50: it is the concentration at which the effect is half-maximal.

Sequence of KHK-C expressed in NRK-52E cells (P50053 whole entry): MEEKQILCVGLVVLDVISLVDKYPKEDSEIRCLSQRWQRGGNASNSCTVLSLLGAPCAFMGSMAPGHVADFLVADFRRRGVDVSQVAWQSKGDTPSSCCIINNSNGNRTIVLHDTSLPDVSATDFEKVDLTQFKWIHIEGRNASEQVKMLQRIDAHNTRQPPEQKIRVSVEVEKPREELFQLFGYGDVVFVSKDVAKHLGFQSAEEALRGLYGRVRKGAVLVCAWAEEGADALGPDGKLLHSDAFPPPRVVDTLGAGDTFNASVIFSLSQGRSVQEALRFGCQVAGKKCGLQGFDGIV
Sequence of human KHK-C (P50053 whole entry): as above

For `C[C@H]1CCN1c1nc2c(c(-c3cccc(S(C)(=O)=O)c3)n1)CCC2` [Example 399, (S)-2-(2-methylazetidin-1-yl)-4-(3-(methylsulfonyl)phenyl)-6,7-dihydro-5H-cyclopenta[d]pyrimidine], the IC50 against human KHK-C turned out to be 74.3 nM. In experiment [1], this molecule showed an EC50 of 138 nM.

In turn, `N#C[C@H]1CCN1c1nc(-c2ccc(C(N)=O)cc2)c2c(n1)C(F)(F)CC2` [Example 707, (R)-4-(2-(2-cyanoazetidin-1-yl)-7,7-difluoro-6,7-dihydro-5H-cyclopenta[d]pyrimidin-4-yl)benzamide] yielded an IC50 on human KHK-C of 43.4 nM. Further, it took 330 nM to reach a half-maximal effect in experiment [1] (EC50).

For the molecule `NC(=O)c1ccc(-c2nc(N3CCC3)nc3c2CCC3)cc1` [Example 405, 4-(2-(azetidin-1-yl)-6,7-dihydro-5H-cyclopenta[d]pyrimidin-4-yl)benzamide], at human KHK-C, the 50% inhibitory concentration (IC50) worked out at 2470 nM. In experiment [1], this molecule yielded an EC50 of 4770 nM.

As to `C[C@@H]1COc2cc(-c3nc(N4C[C@@H](O)[C@@H]4C)nc4c3CCC4(F)F)ccc2C(=O)N1` [Example 180, (R)-8-(7,7-difluoro-2-((2S,3R)-3-hydroxy-2-methylazetidin-1-yl)-6,7-dihydro-5H-cyclopenta[d]pyrimidin-4-yl)-3-methyl-3,4-dihydrobenzo[f][1,4]oxazepin-5(2H)-one], at human KHK-C (ADP-Glo), the IC50 came out at 27.4 nM. The molecule further came in with an EC50 in experiment [1] of 177 nM.

For the molecule `NC(=O)c1ccc(-c2nc(N3CCn4nccc43)nc3c2CCC3)cc1` [Example 173, 4-(2-(2,3-dihydro-1H-imidazo[1,2-b]pyrazol-1-yl)-6,7-dihydro-5H-cyclopenta[d]pyrimidin-4-yl)benzamide], the half-maximal inhibitory concentration (IC50) at human KHK-C (ADP-Glo) was above 5000 nM. In experiment [1], the EC50 was above 5000 nM.

The molecule `C[C@H]1CCN1c1nc2c(c(-c3ccc4sc(N)nc4c3)n1)CCC2` [Example 733, (S)-5-(2-(2-methylazetidin-1-yl)-6,7-dihydro-5H-cyclopenta[d]pyrimidin-4-yl)benzo[d]thiazol-2-amine] showed an IC50 against human KHK-C of 49.8 nM. For the same molecule, in experiment [1], the EC50 amounted to 124 nM.

`C[C@H]1[C@H](O)CN1c1nc2c(c(-c3ccc(C(=O)O)cc3)n1)CCC2` [Example 162, 4-(2-((2S,3R)-3-hydroxy-2-methylazetidin-1-yl)-6,7-dihydro-5H-cyclopenta[d]pyrimidin-4-yl)benzoic acid]: on human KHK-C (ADP-Glo), half-maximal inhibition (IC50) required 93.1 nM. The molecule further yielded an EC50 in experiment [1] above 5000 nM.

At human KHK-C, `C[C@H]1CCN1c1nc2c(c(-c3cccc([S+](C)[O-])c3)n1)CCC2` (stereo in doubt) [Example 400, (S)-2-(2-methylazetidin-1-yl)-4-(3-(methylsulfinyl)phenyl)-6,7-dihydro-5H-cyclopenta[d]pyrimidine] returned an IC50 of 156 nM. The molecule further showed an EC50 in experiment [1] of 320 nM.

Consider `N#CC1CN(c2nc(-c3ccc(C(N)=O)cc3)c3c(n2)C(F)(F)CC3)C1` [Example 708, 4-(2-(3-cyanoazetidin-1-yl)-7,7-difluoro-6,7-dihydro-5H-cyclopenta[d]pyrimidin-4-yl)benzamide], for which the IC50 against human KHK-C was above 5000 nM. For the same molecule, the EC50 in experiment [1] was above 5000 nM.

As for `C[C@H](NS(C)(=O)=O)c1ccc(-c2nc(N3CC[C@@H]3C)nc3c2CCC3(F)F)cc1` [Example 750, N-[(1S)-1-[4-[7,7-difluoro-2-[(2S)-2-methylazetidin-1-yl]-5,6-dihydrocyclopenta[d]pyrimidin-4-yl]phenyl]ethyl]methanesulfonamide], inhibition at human KHK-C was half-maximal at 9 nM (IC50). A half-maximal effect in experiment [1] (EC50) was put at 14.8 nM.

As to `C[C@H]1[C@@H](O)CN1c1nc2c(c(-c3ccc(C(N)=O)cc3)n1)CCC2` [Example 169, 4-(2-((2S,3S)-3-hydroxy-2-methylazetidin-1-yl)-6,7-dihydro-5H-cyclopenta[d]pyrimidin-4-yl)benzamide], at human KHK-C (ADP-Glo), the midpoint of inhibition, the IC50, lay at 4430 nM. Further, the EC50 in experiment [1] was above 5000 nM.

For the molecule `C[C@H]1CCN1c1nc(-c2cc(F)c3c(c2)OCCNC3=O)c2c(n1)C(F)(F)CC2` [Example 747, 8-[7,7-difluoro-2-[(2S)-2-methylazetidin-1-yl]-5,6-dihydrocyclopenta[d]pyrimidin-4-yl]-6-fluoro-3,4-dihydro-2H-1,4-benzoxazepin-5-one], it took 6.1 nM to reach half-maximal inhibition against human KHK-C (IC50). The EC50 in experiment [1] was 15.1 nM.

The record behind these values is patent US12410160B2 (Gilead Sciences, Inc., priority 2021, dated 2025).
